Key:
anesthetized rats [1] = test: In vivo vascular reactivity: hypotensive (MAP) response to i.v. bolus injections; parameters: species or system rat; conditions: for doses at which the decrease in MAP was significant compared to vehicle: doses tested 0.025-6.4 μg/kg, untreated anesthetized rats, Dunnett's test
Experimental: (§1) At the end of the acclimation period, the rats were anesthetized with sodium pentobarbital (50 mg kg^-1, i.p., supplemented as required) and had two separate catheters implanted; one into the right jugular vein [for intravenous (i.v.) injection] and the other into the left femoral artery (for direct measurement of blood pressure and heart rate (HR). In some experiments, a pulsed Doppler flow probe ([Haywood et al., 1981]) was also implanted around the distal abdominal aorta (below the ileocecal artery) through a midline abdominal incision to monitor changes in hindquarter hemodynamic, according to the method developed by [Gardiner and Bennett (1988)] and as previously described ([Bachelard et al., 1992b]). The probes wires were connected to a pulsed Doppler monitoring system (VF-1 Doppler flowmeter; Crystal Biotech, Holliston, MA, USA) modified to operate with a pulse repetition frequency of 125 kHz ([Gardiner et al., 1990]) and fitted with HVPD-20 modules. The mean Doppler signal represents the average hindquarter blood flow velocity, a relative index of blood flow. […] Experiments started at least 30 min following the end of surgery in anesthetized rats.
(§2) The femoral arterial catheter implanted to monitor direct blood pressure was connected to a pressure transducer (TSD 104A, Biopac Systems Inc., Goleta, CA, USA) coupled to a computer-based data acquisition system (MP100, Biopac Systems Inc., Goleta, CA, USA) to continuously record pulsate arterial pressure. The animals were maintained under anesthesia and were warmed with a heated pad.
The experiments were initiated after allowing at least 20 min for stabilization. Then, baseline measurements of HR and phasic and mean arterial blood pressure (MAP) were made over a period of 10 min. […] Peptides were dissolved in isotonic saline (0.9% NaCl) containing 0.1% BSA to prevent the adsorption of peptide to the glassware and plastic surfaces. All i.v. injections were given as 100 μl boluses which were washed in with a further 100 μl of saline (the dead space of the catheter). Only one peptide was tested per group of rats and each injection started with saline-BSA 0.1% followed by the lowest dose of peptide. The next dose was administered once all recorded cardiovascular parameters had returned to baseline after the previous injection (usually 2–10 min). At the end of the experiments each animal was euthanized with an overdose of sodium pentobarbitone (240 mg/kg, i.v.).
The mechanism subserving the cardiovascular responses to i.v. injections of increasing doses of the different BK agonists was first investigated in animals pretreated with the ACE inhibitor, enalaprilat. In these experiments, the animals were separated in five groups depending on the agonist tested. Enalaprilat was intravenously administered as bolus (0.1 mg/kg, 0.1 ml) following a 10 min period of baseline measurements of HR and blood pressure. Fifteen minutes later, dose-response curves to BK, BK-His-Leu, B-9972, BK-Arg, or BK-Ala-Pro were obtained in the indicated group of rats, as described above. Further experiments were made in rats pretreated with the Plummer’s inhibitor (mercaptomethyl- 3-guanidinoethylthiopropanoic acid), a high affinity inhibitor of arginine carboxypeptidases that is an arginine analog ([Plummer and Ryan, 1981]). In these experiments, the inhibitor was intravenously administered as bolus (0.75 mg/kg, 0.1 ml) followed 15 min later by the i.v. injection of increasing doses of BK or BK-Arg, in two different groups of rats. […] In these experiments, icatibant was intravenously administered as bolus (10 μg/kg, 0.1 ml) 15 min before the i.v. injection of increasing doses of BK, BK-His-Leu, B-9972, BK-Ala-Pro, or BK-Arg, in separated groups of rats, as above. […]

anesthetized rats [2] = test: Basal cardiovascular parameters in anesthetized, pre-treated rats; type: in vivo, rat; conditions: 15 min after i.v. bolus (enalaprilat 0.1 mg/kg, Plummer's inhibitor 0.75 mg/kg, icatibant 10 μg/kg, B-9858 20 μg/kg), means ± SEM
Description: as §2
The mechanism subserving the cardiovascular responses to i.v. injections of increasing doses of the different BK agonists was first investigated in animals pretreated with the ACE inhibitor, enalaprilat. In these experiments, the animals were separated in five groups depending on the agonist tested. Enalaprilat was intravenously administered as bolus (0.1 mg/kg, 0.1 ml) following a 10 min period of baseline measurements of HR and blood pressure. Fifteen minutes later, dose-response curves to BK, BK-His-Leu, B-9972, BK-Arg, or BK-Ala-Pro were obtained in the indicated group of rats, as described above. Further experiments were made in rats pretreated with the Plummer’s inhibitor (mercaptomethyl- 3-guanidinoethylthiopropanoic acid), a high affinity inhibitor of arginine carboxypeptidases that is an arginine analog ([Plummer and Ryan, 1981]). In these experiments, the inhibitor was intravenously administered as bolus (0.75 mg/kg, 0.1 ml) followed 15 min later by the i.v. injection of increasing doses of BK or BK-Arg, in two different groups of rats. […] In these experiments, icatibant was intravenously administered as bolus (10 μg/kg, 0.1 ml) 15 min before the i.v. injection of increasing doses of BK, BK-His-Leu, B-9972, BK-Ala-Pro, or BK-Arg, in separated groups of rats, as above. The doses of different inhibitors were based on preliminary experiments and from studies performed by others ([Ishida et al., 1989]; [Wirth et al., 1991]; [Muto et al., 2003]), with deliberate low dosing for peptidase inhibitors for the sake of their selectivity of action. Whether a component of BK hemodynamic effects is mediated by the B1R was assessed in rats pre-treated with the specific B1R antagonist, B-9858 (20 μg/kg, 0.1 ml). B-9858 (Lys-Lys-[Hyp^3, Igl^5, D-Igl^7, Oic^8]des-Arg^9-BK) is a selective B1R antagonist ([Leeb-Lundberg et al., 2005]) that has been found active at the rat B1R ([Scott et al., 2003]).
Baseline values for MAP and HR measured in the untreated control group or 15 min after i.v. pretreatment with enalaprilat, icatibant or the Plummer’s inhibitor are shown in Table 2. While no significant changes in basal values of MAP were noted between the enalaprilat and Plummer’s inhibitor pretreated groups, a slight but significant reduction in basal MAP was found between the icatibant pretreated group and the control group. Furthermore, slight but significant reductions in basal HR were noted between the icatibant and Plummer’s inhibitor pretreated groups and the control group, while a small significant increase in basal HR was found between the enalaprilat pretreated groups and the control group.

anesthetized rats [3] = test: In vivo vascular reactivity: heart rate changes after i.v. bolus injections; parameters: species or system rat
Experimental: as §1, with “rats. […]” for “rats.”
The experiments were initiated after allowing at least 20 min for stabilization. […] The next dose was administered once all recorded cardiovascular parameters had returned to baseline after the previous injection (usually 2–10 min). […]

[4] = icatibant 10 μg/kg i.v. 15 min before, agonist 0.025-6.4 μg/kg i.v.

D-Arg-[Hyp^3,Igl^5,Oic^7,Igl^8]-BK [B-9972]
effect of enalaprilat pretreatment on the dose-dependent hypotensive response (anesthetized rats [1]; enalaprilat 0.1 mg/kg i.v. 15 min before, agonist 0.025-6.4 μg/kg i.v.): not affected | half-recovery time of hypotensive episodes compared with a similar dose of BK (anesthetized rats [1]; i.v. bolus, for B-9972 the highest dose): significantly longer | reduction of apparent hypotensive potency by icatibant (anesthetized rats [1]; icatibant 10 μg/kg i.v. 15 min before): about 10 fold | effect of icatibant pretreatment on the hypotensive response (anesthetized rats [1]; [4]): significantly abated

C[C@H](N[C@@H](CCc1ccccc1)C(=O)O)C(=O)N1CCC[C@H]1C(=O)O [Enalaprilat, enalaprilat]
Basal mean arterial blood pressure (MAP) after pre-treatment (anesthetized rats [2]; control 103.1 ± 1.8): 99.2 ± 1.5 | Basal heart rate (HR) after pre-treatment (anesthetized rats [2]; control 393 ± 6, in bpm): 416 ± 6ˆ*

N=C(N)NCCSCC(CS)C(=O)O (stereo not drawn) [Plummer’s inhibitor, mercaptomethyl-3-guanidinoethylthiopropanoic acid]
Basal mean arterial blood pressure (MAP) after pre-treatment (anesthetized rats [2]; control 103.1 ± 1.8): 107.1 ± 4.7 | Basal heart rate (HR) after pre-treatment (anesthetized rats [2]; control 393 ± 6, in bpm): 353 ± 17ˆ*

D-Arg-[Hyp^3, Thi^5, D-Tic^7, Oic^8] bradykinin [Icatibant]
Basal mean arterial blood pressure (MAP) after pre-treatment (anesthetized rats [2]; control 103.1 ± 1.8, in mmHg): 95.3 ± 1.6ˆ* | Basal heart rate (HR) after pre-treatment (anesthetized rats [2]; control 393 ± 6, in bpm): 356 ± 8ˆ**

des-Arg^9-BK
effect on MAP at the dose of 0.025 μg/kg (anesthetized rats [1]; i.v. bolus, compared to vehicle, n = 9): no significant effect | doses at which the decrease in MAP was significant compared to vehicle (anesthetized rats [1]; i.v. bolus): ≥ 0.1 µg/kg

Lys-Lys-[Hyp^3, Igl^5, D-Igl^7, Oic^8]des-Arg^9-BK [B-9858]
Basal mean arterial blood pressure (MAP) after pre-treatment (anesthetized rats [2]; control 103.1 ± 1.8): 103.3 ± 6.2 | Basal heart rate (HR) after pre-treatment (anesthetized rats [2]; control 393 ± 6, in bpm (unit assumed)): 397 ± 11

bradykinin (RPPGFSPFR; Bradykinin; UniProt P01042 381-389, looked up) [BK]
effect of B-9858 (B1R antagonist) pretreatment on the hypotensive response (anesthetized rats [1]; B-9858 20 μg/kg i.v.): did not significantly modify | effect of Plummer's inhibitor pretreatment on the hypotensive response (anesthetized rats [1]; Plummer's inhibitor 0.75 mg/kg i.v. 15 min before): no effect | potentiation of the hypotensive effect by enalaprilat pretreatment (anesthetized rats [1]; enalaprilat 0.1 mg/kg i.v. 15 min before): ~15 fold | doses at which the decrease in MAP was significant compared to vehicle (anesthetized rats [1]; i.v. bolus): ≥ 0.4 µg/kg | effect of icatibant pretreatment on the hypotensive response (anesthetized rats [1]; [4]): significantly and extensively inhibited | dose at which a significant bradycardia preceded tachycardia (anesthetized rats [3]): 6.4 µg/kg | doses at which tachycardia accompanied the hypotensive response (anesthetized rats [3]; doses tested 0.025-6.4 μg/kg, compared with vehicle): ≥ 0.4 µg/kg

From PMC4709452 (Frontiers in Pharmacology, 2016)
